# From ChEMBL document CHEMBL1140130, “Identification of 4-(2-(4-amino-1,2,5-oxadiazol-3-yl)-1-ethyl-7-{[(3S)-3-piperidinylmethyl]oxy}-1H-imidazo[4,5-c]pyridin-4-yl)-2-methyl-3-butyn-2-ol (GSK690693), a novel inhibitor of AKT kinase” (J Med Chem, 2008)
# Molecular target: Ribosomal protein S6 kinase alpha-1 (Homo sapiens, UniProt Q15418)
# Test: Inhibition of RSK1
# Settings: not given
# Ribosomal protein S6 kinase alpha-1, sequence (Q15418 whole entry): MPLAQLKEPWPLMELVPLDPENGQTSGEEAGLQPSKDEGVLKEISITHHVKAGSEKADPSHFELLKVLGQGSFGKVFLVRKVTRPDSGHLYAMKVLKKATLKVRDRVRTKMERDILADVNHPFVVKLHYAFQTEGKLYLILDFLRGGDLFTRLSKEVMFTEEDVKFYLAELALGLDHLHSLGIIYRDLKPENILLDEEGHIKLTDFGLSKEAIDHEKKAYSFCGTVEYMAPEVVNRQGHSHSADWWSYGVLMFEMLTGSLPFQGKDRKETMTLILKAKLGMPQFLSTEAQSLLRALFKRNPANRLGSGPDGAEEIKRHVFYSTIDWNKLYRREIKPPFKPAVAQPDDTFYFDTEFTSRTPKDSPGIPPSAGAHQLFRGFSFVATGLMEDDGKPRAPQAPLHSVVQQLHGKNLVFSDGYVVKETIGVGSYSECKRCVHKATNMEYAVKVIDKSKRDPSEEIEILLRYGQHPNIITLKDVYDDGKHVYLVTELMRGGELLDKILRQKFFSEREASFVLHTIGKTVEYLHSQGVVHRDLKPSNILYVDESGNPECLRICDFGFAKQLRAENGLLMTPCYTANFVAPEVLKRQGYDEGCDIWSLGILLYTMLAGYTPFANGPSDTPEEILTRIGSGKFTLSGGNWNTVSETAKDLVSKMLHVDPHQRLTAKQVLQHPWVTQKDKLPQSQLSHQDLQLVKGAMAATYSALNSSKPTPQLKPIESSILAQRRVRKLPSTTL
row,IC50,Compound
1,1 nM,CCn1c(-c2nonc2N)nc2c(C#CCO)ncc(OCCCN)c21
2,2510 nM,CCn1c(-c2nonc2N)nc2c(C#CC(C)(C)O)ncc(OCCCNCCc3ccc(OC)cc3)c21
3,6 nM,CCn1c(-c2nonc2N)nc2c(C#CCCO)ncc(OCCCN)c21

# Molecular target: Ribosomal protein S6 kinase alpha-5 (Homo sapiens, UniProt O75582)
# Test: Inhibition of MSK1
# Settings: not given
# Ribosomal protein S6 kinase alpha-5, sequence (O75582 whole entry): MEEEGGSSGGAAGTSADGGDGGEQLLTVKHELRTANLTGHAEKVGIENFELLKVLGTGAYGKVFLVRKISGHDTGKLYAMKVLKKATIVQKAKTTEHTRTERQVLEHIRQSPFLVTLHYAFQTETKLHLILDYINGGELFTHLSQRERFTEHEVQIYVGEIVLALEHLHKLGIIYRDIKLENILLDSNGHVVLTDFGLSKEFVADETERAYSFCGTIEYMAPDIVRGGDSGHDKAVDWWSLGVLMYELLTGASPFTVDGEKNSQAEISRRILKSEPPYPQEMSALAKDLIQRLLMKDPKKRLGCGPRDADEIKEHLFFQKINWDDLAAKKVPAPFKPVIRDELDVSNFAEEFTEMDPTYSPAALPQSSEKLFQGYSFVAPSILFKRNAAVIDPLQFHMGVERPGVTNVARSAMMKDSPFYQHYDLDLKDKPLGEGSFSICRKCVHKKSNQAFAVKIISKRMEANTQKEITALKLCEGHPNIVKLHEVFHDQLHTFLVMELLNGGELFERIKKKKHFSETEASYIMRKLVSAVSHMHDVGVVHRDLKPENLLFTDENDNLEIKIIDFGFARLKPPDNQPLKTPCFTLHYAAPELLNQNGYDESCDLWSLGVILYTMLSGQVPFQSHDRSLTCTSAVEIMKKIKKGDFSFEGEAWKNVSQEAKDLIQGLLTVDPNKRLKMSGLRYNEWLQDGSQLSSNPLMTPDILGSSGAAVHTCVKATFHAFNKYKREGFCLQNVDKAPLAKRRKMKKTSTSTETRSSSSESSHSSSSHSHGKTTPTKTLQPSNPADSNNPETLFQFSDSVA
row,Compound,IC50
1,CCn1c(-c2nonc2N)nc2cncc(C(=O)NC3CCCNC3)c21 (stereo not given),11 nM
2,CCn1c(-c2nonc2N)nc2cncc(C(=O)NC3CCNCC3)c21,13 nM
3,CCn1c(-c2nonc2N)nc2cncc(C(=O)N3CCNCC3)c21,47 nM
4,CCn1c(-c2nonc2N)nc2cncc(OCC3CCNCC3)c21,1 nM
5,CCn1c(-c2nonc2N)nc2cncc(OC3CCNCC3)c21,21 nM
6,CCn1c(-c2nonc2N)nc2cncc(C(=O)NCCNC)c21 [GW876790X],15 nM
7,CCn1c(-c2nonc2N)nc2c(C#CC(C)(C)O)ncc(OCCCNCCc3ccc(OC)cc3)c21,19900 nM
8,CCn1c(-c2nonc2N)nc2cncc(CNC3CCNCC3)c21,8 nM

# Test system: BT-474
# Test: Antiproliferative activity against human BT474 cells
# Type: functional, cell-based
# Settings: not given
row,IC50,Compound
1,760 nM,CCn1c(-c2nonc2N)nc2c(C#CC(C)(C)O)ncc(OC[C@@H]3CCCNC3)c21
2,260 nM,CCn1c(-c2nonc2N)nc2c(C#CC(C)(C)O)ncc(OCCCNCCc3ccc(OC)cc3)c21

# Test system: HFF
# Test: Cytotoxicity against HFF cells
# Type: cell-based
# Settings: Homo sapiens
row,Compound,IC50
1,CCn1c(-c2nonc2N)nc2c(C#CC(C)(C)O)ncc(OC[C@@H]3CCCNC3)c21,21.2 µM
2,CCn1c(-c2nonc2N)nc2c(C#CC(C)(C)O)ncc(OCCCNCCc3ccc(OC)cc3)c21,4.85 µM

# Test system: LNCaP
# Test: Antiproliferative activity against human LNCaP cells
# Type: functional, cell-based
# Settings: not given
row,IC50,Compound
1,190 nM,CCn1c(-c2nonc2N)nc2c(C#CC(C)(C)O)ncc(OC[C@@H]3CCCNC3)c21
2,50 nM,CCn1c(-c2nonc2N)nc2c(C#CC(C)(C)O)ncc(OCCCNCCc3ccc(OC)cc3)c21

# Molecular target: Rho-associated protein kinase 1 (Rattus norvegicus, UniProt Q63644)
# Settings: not given
row,Compound,IC50
1,CCn1c(-c2nonc2N)nc2cncc(C(=O)NC3CCNCC3)c21,6 nM
2,CCn1c(-c2nonc2N)nc2cncc(CNC3CCNCC3)c21,38 nM

# Molecular target: T1, RAC-alpha serine/threonine-protein kinase (Homo sapiens, UniProt P31749)
# Settings: not given
# T1 sequence (P31749 whole entry): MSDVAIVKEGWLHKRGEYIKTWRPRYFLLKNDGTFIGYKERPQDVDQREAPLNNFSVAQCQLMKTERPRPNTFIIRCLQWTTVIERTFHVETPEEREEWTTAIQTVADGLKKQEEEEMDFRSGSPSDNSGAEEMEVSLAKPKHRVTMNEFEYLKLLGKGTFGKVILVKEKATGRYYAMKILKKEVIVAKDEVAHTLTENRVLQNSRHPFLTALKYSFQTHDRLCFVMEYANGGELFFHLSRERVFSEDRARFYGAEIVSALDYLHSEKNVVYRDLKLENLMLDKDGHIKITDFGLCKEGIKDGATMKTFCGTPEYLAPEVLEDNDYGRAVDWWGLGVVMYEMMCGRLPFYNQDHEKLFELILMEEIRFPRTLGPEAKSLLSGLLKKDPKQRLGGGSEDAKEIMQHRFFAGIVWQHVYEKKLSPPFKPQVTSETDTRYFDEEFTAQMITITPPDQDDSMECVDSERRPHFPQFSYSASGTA
row,Compound,IC50
1,CCn1c(-c2nonc2N)nc2cncc(C(=O)N3CC[C@@H](N)C3)c21,331 nM
2,CCn1c(-c2nonc2N)nc2cncc(C(=O)NC3CCCNC3)c21 (stereo not given),631 nM
3,CCn1c(-c2nonc2N)nc2cncc(C(=O)NC3CCNCC3)c21,562 nM
4,CCn1c(-c2nonc2N)nc2cncc(C(=O)N3CCNCC3)c21,501 nM
5,CCn1c(-c2nonc2N)nc2c(-c3cn[nH]c3)ncc(OCCCN)c21,3160 nM
6,CCn1c(-c2nonc2N)nc2cncc(OCC3CCNCC3)c21,56 nM
7,CCn1c(-c2nonc2N)nc2cncc(OC3CCNCC3)c21,79 nM
8,CCn1c(-c2nonc2N)nc2c(-c3cc[nH]c3)ncc(OCCCN)c21,32 nM
9,CCn1c(-c2nonc2N)nc2c(C#CCO)ncc(OCCCN)c21,2 nM
10,CCn1c(-c2nonc2N)nc2cncc(C(=O)NCCNC)c21 [GW876790X],126 nM
11,CCn1c(-c2nonc2N)nc2c(C#CC(C)(C)O)ncc(OCCCNCCc3ccc(OC)cc3)c21,5 nM
12,CCn1c(-c2nonc2N)nc2cncc(CNC3CCNCC3)c21,200 nM
13,CCn1c(-c2nonc2N)nc2c(C#CCCO)ncc(OCCCN)c21,50 nM

# Molecular target: Rho-associated protein kinase 1 (Homo sapiens, UniProt Q13464)
# Test: Inhibition of human recombinant ROCK1 expressed in Sf9 cells
# Settings: not given
# Rho-associated protein kinase 1 (Homo sapiens, UniProt Q13464), sequence (Q13464 whole entry): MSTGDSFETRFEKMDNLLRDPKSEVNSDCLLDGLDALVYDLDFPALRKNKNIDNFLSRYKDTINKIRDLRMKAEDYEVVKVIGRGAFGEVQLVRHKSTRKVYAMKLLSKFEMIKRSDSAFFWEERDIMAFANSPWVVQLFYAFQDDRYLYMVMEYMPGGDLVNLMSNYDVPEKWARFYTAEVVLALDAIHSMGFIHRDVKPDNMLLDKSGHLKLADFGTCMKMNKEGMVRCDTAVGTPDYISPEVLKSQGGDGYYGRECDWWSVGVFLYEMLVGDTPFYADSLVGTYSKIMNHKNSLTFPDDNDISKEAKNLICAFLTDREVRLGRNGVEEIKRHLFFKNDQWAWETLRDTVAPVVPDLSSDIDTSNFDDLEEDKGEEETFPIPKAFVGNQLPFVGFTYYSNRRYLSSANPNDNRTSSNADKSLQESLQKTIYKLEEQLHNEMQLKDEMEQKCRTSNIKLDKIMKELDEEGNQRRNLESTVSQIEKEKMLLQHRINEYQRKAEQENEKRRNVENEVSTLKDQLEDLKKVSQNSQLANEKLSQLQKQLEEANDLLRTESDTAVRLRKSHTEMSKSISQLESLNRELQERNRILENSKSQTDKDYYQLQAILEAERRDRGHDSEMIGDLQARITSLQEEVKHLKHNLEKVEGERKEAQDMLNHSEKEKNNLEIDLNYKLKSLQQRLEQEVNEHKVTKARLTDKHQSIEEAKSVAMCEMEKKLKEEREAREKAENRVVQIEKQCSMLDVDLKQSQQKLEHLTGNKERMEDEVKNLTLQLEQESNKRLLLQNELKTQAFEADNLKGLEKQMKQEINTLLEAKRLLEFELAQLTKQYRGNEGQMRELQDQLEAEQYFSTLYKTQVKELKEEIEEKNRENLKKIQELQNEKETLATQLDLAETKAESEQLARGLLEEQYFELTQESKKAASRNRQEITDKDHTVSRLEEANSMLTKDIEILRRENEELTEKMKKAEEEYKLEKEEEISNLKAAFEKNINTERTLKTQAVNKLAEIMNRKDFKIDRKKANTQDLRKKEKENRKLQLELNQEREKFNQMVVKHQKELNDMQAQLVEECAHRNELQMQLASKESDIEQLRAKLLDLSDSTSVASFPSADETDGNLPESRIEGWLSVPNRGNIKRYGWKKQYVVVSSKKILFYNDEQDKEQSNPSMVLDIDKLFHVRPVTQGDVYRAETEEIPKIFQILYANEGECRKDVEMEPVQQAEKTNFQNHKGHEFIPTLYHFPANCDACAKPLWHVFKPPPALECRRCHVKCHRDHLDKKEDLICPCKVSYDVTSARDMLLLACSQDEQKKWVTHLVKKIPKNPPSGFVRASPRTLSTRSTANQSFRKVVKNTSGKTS
row,Compound,IC50
1,CCn1c(-c2nonc2N)nc2cncc(C(=O)NC3CCCNC3)c21 (stereo not given),40 nM
2,CCn1c(-c2nonc2N)nc2cncc(C(=O)N3CCNCC3)c21,20 nM
3,CCn1c(-c2nonc2N)nc2c(-c3cn[nH]c3)ncc(OCCCN)c21,224 nM
4,CCn1c(-c2nonc2N)nc2cncc(OCC3CCNCC3)c21,3 nM
5,CCn1c(-c2nonc2N)nc2cncc(OC3CCNCC3)c21,8 nM
6,CCn1c(-c2nonc2N)nc2c(-c3cc[nH]c3)ncc(OCCCN)c21,126 nM
7,CCn1c(-c2nonc2N)nc2c(C#CCO)ncc(OCCCN)c21,20 nM
8,CCn1c(-c2nonc2N)nc2cncc(C(=O)NCCNC)c21 [GW876790X],5 nM
9,CCn1c(-c2nonc2N)nc2c(C#CC(C)(C)O)ncc(OCCCNCCc3ccc(OC)cc3)c21,3980 nM
10,CCn1c(-c2nonc2N)nc2c(C#CCCO)ncc(OCCCN)c21,126 nM

# Molecular target: T1, RAC-alpha serine/threonine-protein kinase
# Settings: not given
# Remark: another data set of the same source
row,IC50,Compound
1,2760 nM,CCn1c(-c2nonc2N)nc2c(-c3cc[nH]c3)ncc(OCCCN)c21
2,1130 nM,CCn1c(-c2nonc2N)nc2c(C#CCO)ncc(OCCCN)c21
3,140 nM,CCn1c(-c2nonc2N)nc2c(C#CC(C)(C)O)ncc(OCCCNCCc3ccc(OC)cc3)c21
4,6200 nM,CCn1c(-c2nonc2N)nc2c(C#CCCO)ncc(OCCCN)c21

row,Compound,IC50
1,CCn1c(-c2nonc2N)nc2c(-c3cn[nH]c3)ncc(OCCCN)c21,> 30000 nM

# Molecular target: RAC-gamma serine/threonine-protein kinase (Homo sapiens, UniProt Q9Y243)
# Settings: not given
# RAC-gamma serine/threonine-protein kinase, sequence (Q9Y243 whole entry): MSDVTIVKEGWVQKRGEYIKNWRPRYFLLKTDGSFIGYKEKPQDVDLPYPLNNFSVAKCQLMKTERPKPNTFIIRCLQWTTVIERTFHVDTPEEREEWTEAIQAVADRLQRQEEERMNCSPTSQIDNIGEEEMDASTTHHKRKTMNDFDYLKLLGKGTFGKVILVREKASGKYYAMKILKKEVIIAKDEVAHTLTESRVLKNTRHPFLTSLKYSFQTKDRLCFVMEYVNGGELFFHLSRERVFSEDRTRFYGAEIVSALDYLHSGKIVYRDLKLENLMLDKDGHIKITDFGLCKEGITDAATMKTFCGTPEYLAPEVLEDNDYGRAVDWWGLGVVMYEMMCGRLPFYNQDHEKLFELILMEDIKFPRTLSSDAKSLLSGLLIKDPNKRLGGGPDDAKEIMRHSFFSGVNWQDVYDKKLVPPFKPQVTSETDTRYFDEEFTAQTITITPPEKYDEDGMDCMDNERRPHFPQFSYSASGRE
row,Compound,IC50
1,CCn1c(-c2nonc2N)nc2cncc(C(=O)N3CC[C@@H](N)C3)c21,1290 nM
2,CCn1c(-c2nonc2N)nc2cncc(C(=O)NC3CCCNC3)c21 (stereo not given),3020 nM
3,CCn1c(-c2nonc2N)nc2cncc(C(=O)N3CCNCC3)c21,1550 nM
4,CCn1c(-c2nonc2N)nc2cncc(OCC3CCNCC3)c21,380 nM
5,CCn1c(-c2nonc2N)nc2cncc(OC3CCNCC3)c21,398 nM
6,CCn1c(-c2nonc2N)nc2cncc(C(=O)NCCNC)c21 [GW876790X],1410 nM
7,CCn1c(-c2nonc2N)nc2c(C#CC(C)(C)O)ncc(OCCCNCCc3ccc(OC)cc3)c21,16 nM
8,CCn1c(-c2nonc2N)nc2cncc(CNC3CCNCC3)c21,646 nM
